Reference: patent US4048431A, “Alkylated derivatives of antibiotic BM123γ” (American Cyanamid Company, priority 1975, dated 1977)

Tested on: Escherichia coli US311
Assay: in vivo protection of mice against lethal Escherichia coli US311 infection (single subcutaneous dose)
Set-up: species or system Escherichia coli US311 in Carworth Farms CF-1 mice
Settings: Carworth Farms CF-1 mice, about 20 gm., infected intraperitoneally with lethal dose of E. coli US311 (10^-3 TSP dilution of 5 hour TSP blood culture)
Procedure: These new substances show high in vivo antibacterial activity in mice against Escherichia coli US311 when administered by a single subcutaneous dose to groups of Carworth Farms CF-1 mice, weight about 20 gm., infected intraperitoneally with a lethal dose of this bacteria in a 10^- 3 trypticase soy broth TSP dilution of a 5 hour TSP blood culture. In Table VI below is set forth the in vivo activity of typical products of this invention (prepared from the indicated carbonyl reagents) against Escherichia coli US311 in mice. The activity is expressed in terms of the ED50 or the dose in mg./kg. of body weight required to protect 50% of the mice against E. coli.

2-cyclohexenyl-BM123γ
ED50 (dose required to protect 50% of the mice against E. coli): 0.25 mg./kg. of body weight

2,2,4,4-tetramethylcyclopentyl-BM123γ
ED50 (dose required to protect 50% of the mice against E. coli): 0.75 mg./kg. of body weight

1-methyl-2-(3-hydroxy-2-methylpropyl)-BM123γ
ED50 (dose required to protect 50% of the mice against E. coli): 0.18 mg./kg. of body weight

methyl-BM123γ
ED50 (dose required to protect 50% of the mice against E. coli): 0.12 mg./kg. of body weight

1-methylpropyl-BM123γ
ED50 (dose required to protect 50% of the mice against E. coli): < 0.12 mg./kg. of body weight

1-carbomethoxy-2-carbomethoxyethyl-BM123γ
ED50 (dose required to protect 50% of the mice against E. coli): 0.75 mg./kg. of body weight

norbornyl-BM123γ
ED50 (dose required to protect 50% of the mice against E. coli): 0.18 mg./kg. of body weight

1-methyl-3-phenylpropyl-BM123γ
ED50 (dose required to protect 50% of the mice against E. coli): 0.38 mg./kg. of body weight

1-methyl-2-cyclohexylethyl-BM123γ
ED50 (dose required to protect 50% of the mice against E. coli): 0.18 mg./kg. of body weight

1-methylpentyl-BM123γ
ED50 (dose required to protect 50% of the mice against E. coli): 0.38 mg./kg. of body weight

trans-2-methyl-2-butenyl-BM123γ
ED50 (dose required to protect 50% of the mice against E. coli): 0.18 mg./kg. of body weight

1-[5-norbornene(2)]ethyl-BM123γ
ED50 (dose required to protect 50% of the mice against E. coli): < 0.12 mg./kg. of body weight

1-methyl-2-(N,N-dipropylamino)-ethyl-BM123γ
ED50 (dose required to protect 50% of the mice against E. coli): 0.3 mg./kg. of body weight

1,3,3-trimethylbutyl-BM123γ
ED50 (dose required to protect 50% of the mice against E. coli): 0.18 mg./kg. of body weight

cyclohexyl-BM123γ
ED50 (dose required to protect 50% of the mice against E. coli): 0.75 mg./kg. of body weight

isopropyl-BM123γ
ED50 (dose required to protect 50% of the mice against E. coli): < 0.12 mg./kg. of body weight

1,3-dimethylhexyl-BM123γ
ED50 (dose required to protect 50% of the mice against E. coli): 0.5 mg./kg. of body weight

1-methyl-5-pentenyl-BM123γ
ED50 (dose required to protect 50% of the mice against E. coli): 0.18 mg./kg. of body weight

decahydro-3-methyl-2-naphthyl-BM123γ
ED50 (dose required to protect 50% of the mice against E. coli): 0.37 mg./kg. of body weight

1-methyldecyl-BM123γ
ED50 (dose required to protect 50% of the mice against E. coli): > 2 mg./kg. of body weight

(1-methylcyclo-3-hexenyl)methyl-BM123γ
ED50 (dose required to protect 50% of the mice against E. coli): 0.18 mg./kg. of body weight

1-methyltridecyl-BM123γ
ED50 (dose required to protect 50% of the mice against E. coli): 2.0 mg./kg. of body weight

1-methyl-2-(N,N-dimethylamino)propyl-BM123γ
ED50 (dose required to protect 50% of the mice against E. coli): 1.5 mg./kg. of body weight

1,4-dimethylpentyl-BM123γ
ED50 (dose required to protect 50% of the mice against E. coli): 0.12 mg./kg. of body weight

1-methyl-2-ethylbutyl-BM123γ
ED50 (dose required to protect 50% of the mice against E. coli): 0.18 mg./kg. of body weight

1-methyl-2-phenylethyl-BM123γ
ED50 (dose required to protect 50% of the mice against E. coli): 0.18 mg./kg. of body weight

1-methyl-3-phenylpropen(-2-)yl-BM123γ
ED50 (dose required to protect 50% of the mice against E. coli): 0.25 mg./kg. of body weight

ethyl-BM123γ
ED50 (dose required to protect 50% of the mice against E. coli): 0.38 mg./kg. of body weight

2-phenylcyclohexyl-BM123γ
ED50 (dose required to protect 50% of the mice against E. coli): 0.38 mg./kg. of body weight

1-methyl-2,2-dimethoxyethyl-BM123γ
ED50 (dose required to protect 50% of the mice against E. coli): 0.5 mg./kg. of body weight

cyclooctyl-BM123γ
ED50 (dose required to protect 50% of the mice against E. coli): 0.18 mg./kg. of body weight

3-tert-pentylcyclopentyl-BM123γ
ED50 (dose required to protect 50% of the mice against E. coli): 0.5 mg./kg. of body weight

1-methyl-3-(N,N-diethylamino)propyl-BM123γ
ED50 (dose required to protect 50% of the mice against E. coli): 0.18 mg./kg. of body weight

2-cyclohexylcyclohexyl-BM123γ
ED50 (dose required to protect 50% of the mice against E. coli): 0.75 mg./kg. of body weight

1-methyl-2-(2-chlorophenyl)ethyl-BM123γ
ED50 (dose required to protect 50% of the mice against E. coli): 0.37 mg./kg. of body weight

1,2-dimethylpentyl-BM123γ
ED50 (dose required to protect 50% of the mice against E. coli): 0.18 mg./kg. of body weight

1-methylhexyl-BM123γ
ED50 (dose required to protect 50% of the mice against E. coli): 0.38 mg./kg. of body weight

1,3,3-trimethylcyclopentyl-BM123γ
ED50 (dose required to protect 50% of the mice against E. coli): 0.37 mg./kg. of body weight

1-propylbutyl-BM123γ
ED50 (dose required to protect 50% of the mice against E. coli): 0.25 mg./kg. of body weight

1-(3-pyridyl)ethyl-BM123γ
ED50 (dose required to protect 50% of the mice against E. coli): 0.75 mg./kg. of body weight

decahydro-1-methyl-2-naphthyl-BM123γ
ED50 (dose required to protect 50% of the mice against E. coli): 0.25 mg./kg. of body weight

1,2-dimethylpropyl-BM123γ
ED50 (dose required to protect 50% of the mice against E. coli): 0.19 mg./kg. of body weight

1-ethylpropyl-BM123γ
ED50 (dose required to protect 50% of the mice against E. coli): 0.12 mg./kg. of body weight

2,4-dimethylcyclopentyl-BM123γ
ED50 (dose required to protect 50% of the mice against E. coli): 0.18 mg./kg. of body weight

1,2,2-trimethylpropyl-BM123γ
ED50 (dose required to protect 50% of the mice against E. coli): < 0.12 mg./kg. of body weight | ED50 (dose required to protect 50% of the mice against E. coli) (listed as 1-methyl-2,2-dimethylpropyl-BM123γ): 0.18 mg./kg. of body weight

1-methylnonyl-BM123γ
ED50 (dose required to protect 50% of the mice against E. coli): 0.18 mg./kg. of body weight

2-methylcyclopentyl-BM123γ
ED50 (dose required to protect 50% of the mice against E. coli): 0.25 mg./kg. of body weight

3,3-dimethylcyclohexen(-4-)yl-BM123γ
ED50 (dose required to protect 50% of the mice against E. coli): 0.37 mg./kg. of body weight

1-methyl-2-methoxyethyl-BM123γ
ED50 (dose required to protect 50% of the mice against E. coli): 0.3 mg./kg. of body weight

1-methyl-butyn(-2-)yl-BM123γ
ED50 (dose required to protect 50% of the mice against E. coli): < 2.0 mg./kg. of body weight

1-ethylnonyl-BM123γ
ED50 (dose required to protect 50% of the mice against E. coli): 0.38 mg./kg. of body weight

1-methyl-2-carboethoxypropyl-BM123γ
ED50 (dose required to protect 50% of the mice against E. coli): 0.18 mg./kg. of body weight

1-propylpentyl-BM123γ
ED50 (dose required to protect 50% of the mice against E. coli): 0.39 mg./kg. of body weight

1-(carbethoxymethyl)butyl-BM123γ
ED50 (dose required to protect 50% of the mice against E. coli): 0.75 mg./kg. of body weight

1-methyl-2-(4-chlorophenyl)ethyl-BM123γ
ED50 (dose required to protect 50% of the mice against E. coli): 0.25 mg./kg. of body weight

1-methyl-2-phenoxyethyl-BM123γ
ED50 (dose required to protect 50% of the mice against E. coli): 0.3 mg./kg. of body weight

3,5-dimethylcyclohexyl-BM123γ
ED50 (dose required to protect 50% of the mice against E. coli): < 0.12 mg./kg. of body weight

2,2-dimethylbutyl-BM123γ
ED50 (dose required to protect 50% of the mice against E. coli): 0.12 mg./kg. of body weight

1-methyl-2-o-[tolylcarbamoylethyl]-BM123γ
ED50 (dose required to protect 50% of the mice against E. coli): 0.25 mg./kg. of body weight

1,2,2-dimethylhydroxypropyl-BM123γ
ED50 (dose required to protect 50% of the mice against E. coli): 0.18 mg./kg. of body weight

1-methyl-2-(3-methoxyphenyl)ethyl-BM123γ
ED50 (dose required to protect 50% of the mice against E. coli): 0.30 mg./kg. of body weight

cyclononyl-BM123γ
ED50 (dose required to protect 50% of the mice against E. coli): 0.18 mg./kg. of body weight

4-tetrahydrothiopyranyl-BM123γ
ED50 (dose required to protect 50% of the mice against E. coli): 0.38 mg./kg. of body weight

2-(p-methoxyphenyl)ethyl-BM123γ
ED50 (dose required to protect 50% of the mice against E. coli): 0.18 mg./kg. of body weight

bicyclo[3.2.1]octanyl-2-BM123γ
ED50 (dose required to protect 50% of the mice against E. coli): < 0.25 mg./kg. of body weight

1-ethylpentyl-BM123γ
ED50 (dose required to protect 50% of the mice against E. coli): 0.25 mg./kg. of body weight

1,5-dimethylhexen(-4-)yl-BM123γ
ED50 (dose required to protect 50% of the mice against E. coli): 0.06 mg./kg. of body weight

1-methyl-4-(N,N-diethylamino)butyl-BM123γ
ED50 (dose required to protect 50% of the mice against E. coli): 0.5 mg./kg. of body weight

2-ethyl-2-butenyl-BM123γ
ED50 (dose required to protect 50% of the mice against E. coli): 0.18 mg./kg. of body weight

2-ethylcyclohexyl-BM123γ
ED50 (dose required to protect 50% of the mice against E. coli): 0.19 mg./kg. of body weight

1-methyloctyl-BM123γ
ED50 (dose required to protect 50% of the mice against E. coli): 0.37 mg./kg. of body weight

1,2,3-trimethylpentyl-BM123γ
ED50 (dose required to protect 50% of the mice against E. coli): 0.39 mg./kg. of body weight

4-t-butylcyclohexyl-BM123γ
ED50 (dose required to protect 50% of the mice against E. coli): 0.12 mg./kg. of body weight

1-methyl-3-(4-hydroxyphenyl)ethyl-BM123γ
ED50 (dose required to protect 50% of the mice against E. coli): 0.3 mg./kg. of body weight

1-cyclohexylpropyl-BM123γ
ED50 (dose required to protect 50% of the mice against E. coli): 0.37 mg./kg. of body weight

1-methyl-3-methoxypropen(-2-)yl-BM123γ
ED50 (dose required to protect 50% of the mice against E. coli): > 2.0 mg./kg. of body weight

2-cyclopentylcyclopentyl-BM123γ
ED50 (dose required to protect 50% of the mice against E. coli): 0.37 mg./kg. of body weight

1-methyl-penten(-4-)yl-BM123γ
ED50 (dose required to protect 50% of the mice against E. coli): 0.38 mg./kg. of body weight

2,2-dimethylpropyl-BM123γ
ED50 (dose required to protect 50% of the mice against E. coli): 0.18 mg./kg. of body weight

1-methyl-2-chloro-2-carbethoxyethyl-BM123γ
ED50 (dose required to protect 50% of the mice against E. coli): 1.5 mg./kg. of body weight

1,3-dimethylpentyl-BM123γ
ED50 (dose required to protect 50% of the mice against E. coli): < 0.12 mg./kg. of body weight

1,2,4-trimethylheptyl-BM123γ
ED50 (dose required to protect 50% of the mice against E. coli): 0.37 mg./kg. of body weight

2-phenylethyl-BM123γ
ED50 (dose required to protect 50% of the mice against E. coli): 0.18 mg./kg. of body weight
